Test results published in paper PMC6628435, “Chemical Synthesis, Proper Folding, Nav Channel Selectivity Profile and Analgesic Properties of the Spider Peptide Phlotoxin 1” (Toxins, 2019).
Bridge positions count the residues as written; N and C are the ends. Peptide text beside a SMILES is read from it.

Legend:
human Nav1.7 = biological target: T1, human Nav1.7 (Homo sapiens, UniProt Q15858); assay: Automated patch-clamp (Nanion SyncroPatch 384PE) on CHO cells expressing human Nav1.7; assay type: cell-based; settings: for block of Nav1.7 inward current: 100 nM toxin, end of application (about 12-13 min), CHO hNav1.7; for Hill value: same dose-response fit as IC50, CHO hNav1.7 automated patch-clamp
T1 construct: expressed in transfected cells
T1 sequence (Q15858 whole entry): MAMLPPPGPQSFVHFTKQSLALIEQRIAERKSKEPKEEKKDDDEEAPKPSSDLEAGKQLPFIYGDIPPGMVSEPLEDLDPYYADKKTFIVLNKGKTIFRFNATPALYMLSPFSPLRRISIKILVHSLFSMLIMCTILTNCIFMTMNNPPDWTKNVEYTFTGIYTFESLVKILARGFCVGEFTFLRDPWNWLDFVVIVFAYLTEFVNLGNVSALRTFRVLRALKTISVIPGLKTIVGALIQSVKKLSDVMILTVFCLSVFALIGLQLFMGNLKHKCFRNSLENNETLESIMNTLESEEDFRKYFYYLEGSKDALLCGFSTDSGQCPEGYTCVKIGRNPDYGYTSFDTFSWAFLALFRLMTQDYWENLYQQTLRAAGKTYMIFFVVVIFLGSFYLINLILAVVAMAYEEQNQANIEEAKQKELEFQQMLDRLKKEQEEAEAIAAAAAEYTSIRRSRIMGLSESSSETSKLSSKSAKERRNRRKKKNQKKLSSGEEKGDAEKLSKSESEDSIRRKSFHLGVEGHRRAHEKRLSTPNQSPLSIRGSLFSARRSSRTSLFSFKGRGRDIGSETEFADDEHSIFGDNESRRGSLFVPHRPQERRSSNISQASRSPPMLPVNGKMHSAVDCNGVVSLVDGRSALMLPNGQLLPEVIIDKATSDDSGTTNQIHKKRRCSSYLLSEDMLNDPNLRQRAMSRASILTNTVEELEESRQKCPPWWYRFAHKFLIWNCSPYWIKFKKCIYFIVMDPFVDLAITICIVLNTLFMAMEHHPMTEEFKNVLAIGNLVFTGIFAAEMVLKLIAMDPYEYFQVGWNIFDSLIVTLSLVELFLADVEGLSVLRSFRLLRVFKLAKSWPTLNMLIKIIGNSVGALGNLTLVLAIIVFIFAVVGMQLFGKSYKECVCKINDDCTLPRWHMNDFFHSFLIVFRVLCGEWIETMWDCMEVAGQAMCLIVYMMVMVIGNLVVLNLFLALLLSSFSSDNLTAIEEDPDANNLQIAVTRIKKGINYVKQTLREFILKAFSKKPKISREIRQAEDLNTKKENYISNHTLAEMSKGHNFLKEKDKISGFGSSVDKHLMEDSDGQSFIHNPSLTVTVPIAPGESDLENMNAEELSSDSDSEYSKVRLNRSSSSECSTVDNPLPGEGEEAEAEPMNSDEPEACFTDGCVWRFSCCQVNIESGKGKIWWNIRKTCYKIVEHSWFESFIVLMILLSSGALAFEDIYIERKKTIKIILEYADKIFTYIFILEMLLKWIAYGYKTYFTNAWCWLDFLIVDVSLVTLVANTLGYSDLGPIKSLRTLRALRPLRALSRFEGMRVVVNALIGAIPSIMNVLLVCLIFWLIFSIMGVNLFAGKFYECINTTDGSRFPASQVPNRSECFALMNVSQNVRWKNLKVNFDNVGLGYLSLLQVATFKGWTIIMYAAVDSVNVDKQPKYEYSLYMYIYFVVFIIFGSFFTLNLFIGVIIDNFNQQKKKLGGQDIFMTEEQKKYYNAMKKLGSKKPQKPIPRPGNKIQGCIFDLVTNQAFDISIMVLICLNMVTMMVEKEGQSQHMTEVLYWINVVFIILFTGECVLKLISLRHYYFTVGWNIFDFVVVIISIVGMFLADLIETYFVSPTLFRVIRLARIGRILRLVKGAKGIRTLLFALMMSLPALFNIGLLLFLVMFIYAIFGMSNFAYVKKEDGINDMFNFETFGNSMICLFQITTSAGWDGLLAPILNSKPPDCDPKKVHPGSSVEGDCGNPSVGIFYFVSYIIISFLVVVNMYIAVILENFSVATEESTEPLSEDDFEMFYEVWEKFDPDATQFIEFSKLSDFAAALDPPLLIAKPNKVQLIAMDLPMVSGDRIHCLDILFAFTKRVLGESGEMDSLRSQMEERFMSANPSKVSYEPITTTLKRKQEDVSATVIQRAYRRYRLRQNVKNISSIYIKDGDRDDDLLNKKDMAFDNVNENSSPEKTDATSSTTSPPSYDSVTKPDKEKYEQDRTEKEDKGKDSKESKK
Source text: We used a CHO mammalian cell line expressing the human Nav1.7 instead of Xenopus oocytes for the pharmacological evaluation. […] 100-ms pulses from −100 mV to −10 mV were applied at a frequency of 0.2 Hz and various concentrations of PhlTx1 were applied to the cells. […] Using a manual patch clamp, which is better suited to investigate current recovery from block than an automated patch clamp that requires several washing steps, we investigated the reversibility properties of a PhlTx1 block.
CHO cells stably expressing the human Nav1.7 cells were cultured in Dulbecco’s Modified Eagle’s Medium (DMEM) supplemented with 10% fetal calf serum, 1 mM pyruvic acid, 4 mM glutamine, 10 IU/mL penicillin and 10 μg/mL streptomycin (Gibco, Grand Island, NY, USA), and incubated at 37 °C in a 5% CO2 atmosphere. For automated patch-clamp recordings, cells were detached with trypsin and floating single cells were diluted (~300,000 cells/mL) in medium contained (in mM): 4 KCl, 140 NaCl, 5 Glucose, 10 HEPES (pH 7.4, osmolarity 290 mOsm).
Chips with single-hole and high-resistance (~6–7 MΩ) were used for CHO cell recordings. Voltage pulses and whole-cell recordings were achieved using the PatchControl384 v1.5.2 software (Nanion, Munich, Germany) and the Biomek v1.0 interface (Beckman Coulter). Prior recordings, dissociated cells were shaken at 60 RPM in a cell hotel reservoir at 10 °C. After cell catching, sealing, whole-cell formation, liquid application, recording, and data acquisition were all performed sequentially and automatically. […] Whole-cell experiments were done at −100 mV holding potential and at room temperature (18–22 °C), while currents triggered at −10 mV test potential were sampled at 20 kHz. Stimulation frequency was set at 0.2 Hz. Toxins were prepared at various concentrations in the extracellular solution, itself supplemented with 0.3% BSA. […] Compound solutions were diluted 3 times in the patch-clamp recording well by adding 30 μL to 60 μL external solution to reach the final reported concentration and the test volume of 90 μL. Percentages of current inhibitions were measured at the end of a 12- to 15-min application time (12-min for fast blocking toxins; 15-min for slow blocking ones). A single concentration of peptide was tested on each cell for building the full-inhibition curves.

[1] = system: formalin-induced spontaneous pain behavior; assay: Formalin pain test in mice after intrathecal injection; assay type: in vivo, C57BL/6J mice; settings: mouse, in vivo
human Nav1.7 channel = settings: ref [45]; cited from earlier work

Compound | IC50 (human Nav1.7) | block of Nav1.7 inward current (human Nav1.7) | also measured
CC[C@H](C)[C@H](NC(=O)[C@H](CCC(=O)O)NC(=O)[C@H](Cc1ccc(O)cc1)NC(=O)[C@H](CCCCN)NC(=O)[C@@H]1CSSC[C@@H]2NC(=O)[C@H](CCC(N)=O)NC(=O)[C@H](CC(=O)O)NC(=O)[C@H](CC(N)=O)NC(=O)[C@H](CO)NC(=O)[C@@H]3CCCN3C(=O)[C@H](CC(N)=O)NC(=O)[C@@H]3CSSC[C@H](NC(=O)[C@H](C(C)C)NC(=O)[C@H](CC(C)C)NC(=O)[C@H](CC(N)=O)NC(=O)[C@H](CO)NC(=O)[C@H](CO)NC(=O)[C@H](CCCCN)NC(=O)[C@H](CSSC[C@H](NC(=O)[C@@H](N)CCC(=O)O)C(=O)N[C@@H](CC(C)C)C(=O)NCC(=O)N[C@@H](Cc4ccccc4)C(=O)NCC(=O)N[C@@H](CCCCN)C(=O)NCC(=O)N3)NC2=O)C(=O)N[C@@H](CO)C(=O)N[C@@H](CCCNC(=N)N)C(=O)N[C@@H](CCCCN)C(=O)N[C@@H](Cc2c[nH]cn2)C(=O)N[C@@H](CCCNC(=N)N)C(=O)N[C@@H](Cc2c[nH]c3ccccc23)C(=O)N1)C(N)=O [HnTx-IV] | 4.3 nM | – | –
CC[C@H](C)[C@@H]1NC(=O)[C@H](CC(N)=O)NC(=O)[C@H](CCCNC(=N)N)NC(=O)[C@@H]2CCCN2C(=O)[C@H](Cc2c[nH]c3ccccc23)NC(=O)[C@H](CCCCN)NC(=O)[C@H](CO)NC(=O)[C@H](CCCCN)NC(=O)[C@@H]2CSSC[C@@H]3NC(=O)[C@H](CCCCN)NC(=O)CNC(=O)[C@H](Cc4c[nH]c5ccccc45)NC(=O)[C@H](Cc4ccccc4)NC(=O)[C@H](CCCNC(=N)N)NC(=O)[C@H](C(C)C)NC(=O)[C@@H](NC(=O)[C@@H](N)CC(=O)O)CSSC[C@H](NC(=O)[C@H](CSSC[C@@H](C(=O)N[C@H](C(=O)N[C@@H](Cc4c[nH]c5ccccc45)C(=O)N[C@@H](CC(=O)O)C(=O)NCC(=O)N[C@@H](CO)C(=O)N[C@H](C(=O)O)C(C)C)C(C)C)NC1=O)NC(=O)[C@H](CC(=O)O)NC(=O)[C@H](CO)NC(=O)[C@H]([C@@H](C)O)NC(=O)[C@H](CCC(N)=O)NC(=O)[C@H](CO)NC3=O)C(=O)N1CCC[C@H]1C(=O)N[C@@H](Cc1c[nH]cn1)C(=O)N[C@@H](CC(C)C)C(=O)N[C@@H](C)C(=O)N2 [GrTx1] | 15.3 nM | about 50% | –
CC[C@H](C)[C@H](NC(=O)[C@H](CCCCN)NC(=O)[C@H](CCCCN)NC(=O)[C@H](CCCCN)NC(=O)[C@@H]1CSSC[C@@H]2NC(=O)[C@H](CCCCN)NC(=O)[C@H](CCCNC(=N)N)NC(=O)[C@H](CCC(=O)O)NC(=O)[C@H](CCC(=O)O)NC(=O)[C@H](CC(=O)O)NC(=O)[C@@H]3CSSC[C@H](NC(=O)[C@H](C(C)C)NC(=O)[C@H](CC(C)C)NC(=O)CNC(=O)[C@H](CCC(=O)O)NC(=O)[C@H](CSSC[C@H](NC(=O)[C@@H](N)Cc4ccc(O)cc4)C(=O)N[C@@H](CCC(N)=O)C(=O)N[C@@H](CCCCN)C(=O)N[C@@H](Cc4c[nH]c5ccccc45)C(=O)N[C@@H](CCSC)C(=O)N[C@@H](Cc4c[nH]c5ccccc45)C(=O)N[C@@H]([C@@H](C)O)C(=O)N3)NC2=O)C(=O)N[C@@H](CCCNC(=N)N)C(=O)N[C@@H](CC(C)C)C(=O)N[C@@H](Cc2c[nH]c3ccccc23)C(=O)N1)C(=O)N[C@@H](CCC(=O)O)C(=O)N[C@@H](Cc1c[nH]c2ccccc12)C(=O)O [GsAFII] (H-YCQKWMWTCDEERKCCEGLVCRLWCKKKIEW-OH; disulfide 2-16, 9-21, 15-25) | 13.6 nM | – | –
CC(C)C[C@H](NC(=O)[C@H](CCCCN)NC(=O)[C@H](Cc1c[nH]c2ccccc12)NC(=O)[C@H](CCCCN)NC(=O)[C@@H]1CSSC[C@@H]2NC(=O)[C@H](CCC(=O)O)NC(=O)[C@H](CC(N)=O)NC(=O)[C@H](CCCCN)NC(=O)CNC(=O)[C@@H]3CCCN3C(=O)[C@H]([C@@H](C)O)NC(=O)[C@@H]3CSSC[C@H](NC(=O)[C@H](C(C)C)NC(=O)[C@H](CCCNC(=N)N)NC(=O)[C@H](CC(N)=O)NC(=O)[C@@H]4CCCN4C(=O)[C@H](CSSC[C@H](NC(=O)[C@H](C)N)C(=O)N[C@@H](CCCCN)C(=O)NCC(=O)N[C@@H](C(C)C)C(=O)N[C@@H](Cc4ccccc4)C(=O)N[C@@H](CC(=O)O)C(=O)N[C@@H](C)C(=O)N3)NC2=O)C(=O)N[C@@H](CO)C(=O)N[C@@H](CC(=O)O)C(=O)N[C@@H](CCCCN)C(=O)N[C@@H](Cc2c[nH]cn2)C(=O)N[C@@H](CCCCN)C(=O)N[C@@H](Cc2c[nH]c3ccccc23)C(=O)N1)C(=O)O [HwTx-I] (H-ACKGVFDACTPGKNECCPNRVCSDKHKWCKWKL-OH; disulfide 2-17, 9-22, 16-29; N-terminus and C-terminus assumed) | – | incomplete block | time constant of inhibition (τ) (human Nav1.7; 100 nM, mono-exponential fit (PhlTx1 n = 8)): 492 s; Hill value (human Nav1.7): 2.3
CN1CC[C@]23c4c5ccc(O)c4O[C@H]2[C@@H](O)C=C[C@H]3[C@H]1C5 [morphine, reference compound] | – | – | formalin-induced pain behavior (licking), Phase II (inflammation, 10–45 min) [1]: 0
CC(C)C[C@@H]1NC(=O)[C@H](Cc2c[nH]c3ccccc23)NC(=O)[C@H](Cc2ccc(O)cc2)NC(=O)[C@H](CCCNC(=N)N)NC(=O)[C@@H](NC(=O)[C@@H](N)CCC(=O)O)CSSC[C@@H]2NC(=O)[C@@H]3CSSC[C@@H](C(=O)N[C@H](C(=O)N[C@@H](Cc4c[nH]c5ccccc45)C(=O)N[C@@H](CC(=O)O)C(=O)NCC(=O)N[C@H](C(=O)N[C@@H](Cc4ccccc4)C(=O)N[C@@H](CO)C(=O)O)[C@@H](C)O)C(C)C)NC(=O)[C@H](Cc4c[nH]c5ccccc45)NC(=O)CNC(=O)[C@H](Cc4c[nH]cn4)NC(=O)[C@H](CCCNC(=N)N)NC(=O)[C@H](CCCNC(=N)N)NC(=O)[C@H](CO)NC(=O)[C@H](CSSC[C@H](NC(=O)CNC(=O)CNC1=O)C(=O)N[C@@H](CO)C(=O)N[C@@H](C)C(=O)NCC(=O)N[C@@H](CCC(N)=O)C(=O)N[C@@H]([C@@H](C)O)C(=O)N3)NC(=O)[C@H](C(C)C)NC(=O)[C@H](CC(C)C)NC(=O)[C@H](Cc1c[nH]cn1)NC(=O)[C@H](CCCCN)NC2=O [ProTx-I] | 7.1 nM | – | –
CSCC[C@@H]1NC(=O)[C@H](Cc2ccc(O)cc2)NC(=O)[C@H](CCCNC(=N)N)NC(=O)[C@@H](NC(=O)[C@@H](N)CC(=O)O)CSSC[C@@H]2NC(=O)[C@@H]3CSSC[C@@H](C(=O)N[C@@H](C)C(=O)N[C@@H](Cc4c[nH]c5ccccc45)C(=O)N[C@@H](CC(=O)O)C(=O)N[C@@H](Cc4ccccc4)C(=O)N[C@H](C(=O)N[C@@H](Cc4ccccc4)C(=O)N[C@H](C(=O)O)[C@@H](C)O)[C@@H](C)O)NC(=O)[C@H](Cc4ccc(O)cc4)NC(=O)[C@H](CCCCN)NC(=O)[C@H](CCSC)NC(=O)[C@H](CCCCN)NC(=O)[C@H](CCCNC(=N)N)NC(=O)[C@H](CCCCN)NC(=O)[C@H](CSSC[C@H](NC(=O)[C@H](CC(=O)O)NC(=O)CNC(=O)[C@H](Cc4ccccc4)NC1=O)C(=O)N[C@@H](CCC(=O)O)C(=O)N[C@@H](CCCCN)C(=O)N[C@@H](CC(=O)O)C(=O)N[C@@H](CCC(=O)O)C(=O)N[C@@H](CC(=O)O)C(=O)N3)NC(=O)CNC(=O)[C@H](CC(C)C)NC(=O)[C@H](Cc1c[nH]cn1)NC(=O)[C@H](CCCCN)NC2=O [Pn3a] | – | fully insensitive | IC50 (human Nav1.7 channel): 0.9 nM; Hill value (human Nav1.7): 3
